Earlier results in patent US20130007910A1, “STRUCTURE OF THE BRASS[…] BRI1, AND MODULATION OF BRI1 SIGNALING” (Salk Institute for Biological Studies (027731), priority 2011, published 2013).

Target: T1, BRI1 (Arabidopsis thaliana, UniProt O22476)
T1 sequence (O22476 24-1196): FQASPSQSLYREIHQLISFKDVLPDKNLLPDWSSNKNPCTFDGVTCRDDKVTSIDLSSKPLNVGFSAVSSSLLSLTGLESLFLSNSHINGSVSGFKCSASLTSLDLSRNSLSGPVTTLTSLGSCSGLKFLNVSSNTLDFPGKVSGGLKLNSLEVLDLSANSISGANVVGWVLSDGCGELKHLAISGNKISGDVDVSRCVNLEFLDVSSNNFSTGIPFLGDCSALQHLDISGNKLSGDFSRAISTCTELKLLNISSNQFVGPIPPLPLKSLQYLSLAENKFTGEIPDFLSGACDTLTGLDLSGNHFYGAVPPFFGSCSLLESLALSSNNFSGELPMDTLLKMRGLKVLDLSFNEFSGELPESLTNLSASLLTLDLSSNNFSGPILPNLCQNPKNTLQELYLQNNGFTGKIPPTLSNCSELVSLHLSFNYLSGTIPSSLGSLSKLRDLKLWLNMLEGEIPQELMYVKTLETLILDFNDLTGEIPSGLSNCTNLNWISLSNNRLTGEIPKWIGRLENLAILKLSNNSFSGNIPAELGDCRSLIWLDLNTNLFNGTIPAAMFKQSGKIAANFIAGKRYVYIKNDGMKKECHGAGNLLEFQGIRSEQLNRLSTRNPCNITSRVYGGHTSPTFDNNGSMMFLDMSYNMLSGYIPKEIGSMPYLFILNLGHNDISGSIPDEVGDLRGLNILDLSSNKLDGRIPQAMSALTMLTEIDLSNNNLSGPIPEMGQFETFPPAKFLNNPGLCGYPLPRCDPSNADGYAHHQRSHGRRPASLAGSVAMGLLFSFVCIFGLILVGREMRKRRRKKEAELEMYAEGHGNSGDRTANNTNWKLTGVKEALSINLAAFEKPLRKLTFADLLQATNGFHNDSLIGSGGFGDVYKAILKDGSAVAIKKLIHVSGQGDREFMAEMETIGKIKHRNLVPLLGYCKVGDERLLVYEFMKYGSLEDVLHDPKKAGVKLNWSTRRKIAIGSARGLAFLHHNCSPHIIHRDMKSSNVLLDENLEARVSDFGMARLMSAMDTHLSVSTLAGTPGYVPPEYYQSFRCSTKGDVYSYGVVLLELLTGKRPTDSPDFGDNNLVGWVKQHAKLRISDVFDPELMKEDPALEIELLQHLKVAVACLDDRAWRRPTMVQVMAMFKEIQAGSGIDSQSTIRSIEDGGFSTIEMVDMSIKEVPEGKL
Conditions: for recognition of steroid ligand by BRI1: known behaviour, explained from the co-crystal structure (alkyl side chain pocket, B-ring contacts)

Structure (SMILES)	affinity of binding to BRI1 (stated in words, no method or figure given)	recognition of steroid ligand by BRI1
CC(C)[C@H](C)[C@@H](O)[C@H](O)[C@@H](C)[C@H]1CC[C@H]2[C@@H]3COC(=O)[C@H]4C[C@H](O)[C@H](O)C[C@]4(C)[C@H]3CC[C@]12C [brassinolide]	nanomolar	
CC(C)[C@H](C)[C@@H](O)[C@H](O)[C@@H](C)[C@H]1CC[C@H]2[C@@H]3CC(=O)[C@H]4C[C@H](O)[C@H](O)C[C@]4(C)[C@H]3CC[C@]12C [castasterone]		tolerated by BRI1
C[C@H]([C@H](O)CCC(C)(C)O)[C@H]1CC[C@@]2(O)C3=CC(=O)[C@@H]4C[C@@H](O)[C@@H](O)C[C@]4(C)[C@H]3CC[C@]12C [ecdysone]		cannot be recognized by BRI1
